According to ChEMBL document CHEMBL4732067, “Synthesis and evaluation of new compounds bearing 3-(4-aminopiperidin-1-yl)methyl magnolol scaffold as anticancer agents for the treatment of non-small cell lung cancer via targeting autophagy” (Eur J Med Chem, 2021):

Assays:
[1] = Toxicity in nude BALB/c mouse xenografted with C26 cells assessed as body weight loss at 60 mg/kg, po administered once daily and measured every two days; type: organism-based; settings: in vivo
[2] = tested on: HCC827; experiment: Antiproliferative activity against human HCC827 cells assessed as reduction in cell viability after 72 hrs by MTT assay; type: functional, cell-based; settings: HCC827, 72 h
[3] = tested on: NCI-H1975; experiment: Antiproliferative activity against human NCI-H1975 cells assessed as reduction in cell viability after 72 hrs by MTT assay; type: functional, cell-based; settings: NCI-H1975, 72 h
[4] = tested on: NCI-H460; experiment: Antiproliferative activity against human NCI-H460 cells assessed as reduction in cell viability after 72 hrs by MTT assay; type: functional, cell-based; settings: NCI-H460, 72 h
[5] = tested on: A549; experiment: Antiproliferative activity against human A549 cells expressing wild type EGFR assessed as reduction in cell viability after 72 hrs by MTT assay; type: functional, cell-based; settings: A549, 72 h
[6] = Antiproliferative activity against human SPCA1 cells expressing wild type EGFR assessed as reduction in cell viability after 72 hrs by MTT assay; type: functional, cell-based; settings: SPCA1, 72 h
[7] = tested on: NCI-H1650; experiment: Antiproliferative activity against human NCI-H1650 cells expressing EGFR mutant assessed as reduction in cell viability after 72 hrs by MTT assay; type: functional, cell-based; settings: NCI-H1650, 72 h
[8] = tested on: NCI-H441; experiment: Antiproliferative activity against human NCI-H441 cells […] assessed as reduction in cell viability after 72 hrs by MTT assay; type: functional, cell-based; settings: NCI-H441, 72 h
[9] = Metabolic stability in human liver microsomes assessed as half life; type: ADME, Microsome
[10] = Metabolic stability in human liver microsomes assessed as intrinsic clearance per gram protein; type: ADME, Microsome
[11] = tested on: L929; experiment: Cytotoxicity against mouse L929 cells; type: cell-based
[12] = Antitumor activity against mouse C26 cells xenografted in BALB/c mouse assessed as tumor growth inhibition at 50 mg/kg, po administered once daily and measured every two days by caliper method relative to control; type: functional; settings: 48 h, read-out: TGI
[13] = Toxicity in nude BALB/c mouse xenografted with C26 cells assessed as change in body weight at 50 mg/kg, po administered once daily and measured every two days; type: organism-based; settings: in vivo
[14] = Toxicity in nude BALB/c mouse xenografted with C26 cells assessed as abnormalities in liver size and morphology at 50 mg/kg, po administered once daily; type: organism-based; settings: in vivo
[15] = Toxicity in nude BALB/c mouse xenografted with C26 cells assessed as abnormalities in kidney size and morphology at 50 mg/kg, po administered once daily; type: organism-based; settings: in vivo
[16] = Toxicity in nude BALB/c mouse xenografted with C26 cells assessed as abnormalities in lung size and morphology at 50 mg/kg, po administered once daily; type: organism-based; settings: in vivo
[17] = Toxicity in nude BALB/c mouse xenografted with C26 cells assessed as abnormalities in heart size and morphology at 50 mg/kg, po administered once daily; type: organism-based; settings: in vivo
[18] = tested on: NCI-H460; experiment: Antitumor activity against human NCI-H460 cells xenografted in nude BABL/c mouse assessed as tumor growth inhibition at 10 mg/kg, po administered once daily and measured every two days by caliper method relative to control; type: functional; settings: 48 h, read-out: TGI
[19] = tested on: NCI-H460; experiment: Antitumor activity against human NCI-H460 cells xenografted in nude BABL/c mouse assessed as tumor growth inhibition at 60 mg/kg, po administered once daily and measured every two days by caliper method relative to control; type: functional; settings: 48 h, read-out: TGI
[20] = tested on: NCI-H460; experiment: Induction of cell cycle arrest in human NCI-H460 cells assessed as accumulation at G0/G1 phase at 1 uM incubated for 24 hrs by propidium iodide staining based flow cytometry (reference value: 53.97 %); type: functional
[21] = tested on: NCI-H460; experiment: Induction of cell cycle arrest in human NCI-H460 cells assessed as accumulation at G2/M phase at 1 uM incubated for 24 hrs by propidium iodide staining based flow cytometry (reference value: 16.71 %); type: functional
[22] = tested on: NCI-H460; experiment: Induction of cell cycle arrest in human NCI-H460 cells assessed as accumulation at S phase at 1 uM incubated for 24 hrs by propidium iodide staining based flow cytometry (reference value: 29.32 %); type: functional
[23] = tested on: NCI-H460; experiment: Induction of cell cycle arrest in human NCI-H460 cells assessed as accumulation at G0/G1 phase at 5 uM incubated for 24 hrs by propidium iodide staining based flow cytometry (reference value: 53.97 %); type: functional
[24] = tested on: NCI-H460; experiment: Induction of cell cycle arrest in human NCI-H460 cells assessed as accumulation at G2/M phase at 5 uM incubated for 24 hrs by propidium iodide staining based flow cytometry (reference value: 16.71 %); type: functional
[25] = tested on: NCI-H460; experiment: Induction of cell cycle arrest in human NCI-H460 cells assessed as accumulation at S phase at 5 uM incubated for 24 hrs by propidium iodide staining based flow cytometry (reference value: 29.32 %); type: functional
[26] = tested on: NCI-H460; experiment: Induction of cell cycle arrest in human NCI-H460 cells assessed as accumulation at G0/G1 phase at 10 uM incubated for 24 hrs by propidium iodide staining based flow cytometry (reference value: 53.97 %); type: functional
[27] = tested on: NCI-H460; experiment: Induction of cell cycle arrest in human NCI-H460 cells assessed as accumulation at G2/M phase at 10 uM incubated for 24 hrs by propidium iodide staining based flow cytometry (reference value: 16.71 %); type: functional
[28] = tested on: NCI-H460; experiment: Induction of cell cycle arrest in human NCI-H460 cells assessed as accumulation at S phase at 10 uM incubated for 24 hrs by propidium iodide staining based flow cytometry (reference value: 29.32 %); type: functional
[29] = tested on: NCI-H460; experiment: Induction of apoptosis in human NCI-H460 cells assessed as viable cells at 1 uM after 48 hrs by Annexin V-FITC/propidium iodide staining based flow cytometric analysis (reference value: 91.528 %); type: functional; settings: read-out: Activity
[30] = tested on: NCI-H460; experiment: Induction of apoptosis in human NCI-H460 cells assessed as early apoptotic cells at 1 uM after 48 hrs by Annexin V-FITC/propidium iodide staining based flow cytometric analysis (reference value: 3.980 %); type: functional
[31] = tested on: NCI-H460; experiment: Induction of apoptosis in human NCI-H460 cells assessed as late apoptotic cells at 1 uM after 48 hrs by Annexin V-FITC/propidium iodide staining based flow cytometric analysis (reference value: 3.995 %); type: functional
[32] = tested on: NCI-H460; experiment: Induction of apoptosis in human NCI-H460 cells assessed as necrotic cells at 1 uM after 48 hrs by Annexin V-FITC/propidium iodide staining based flow cytometric analysis (reference value: 0.498 %); type: functional
[33] = tested on: NCI-H460; experiment: Induction of apoptosis in human NCI-H460 cells assessed as viable cells at 2 uM after 48 hrs by Annexin V-FITC/propidium iodide staining based flow cytometric analysis (reference value: 91.528 %); type: functional; settings: read-out: Activity
[34] = tested on: NCI-H460; experiment: Induction of apoptosis in human NCI-H460 cells assessed as early apoptotic cells at 2 uM after 48 hrs by Annexin V-FITC/propidium iodide staining based flow cytometric analysis (reference value: 3.980 %); type: functional
[35] = tested on: NCI-H460; experiment: Induction of apoptosis in human NCI-H460 cells assessed as late apoptotic cells at 2 uM after 48 hrs by Annexin V-FITC/propidium iodide staining based flow cytometric analysis (reference value: 3.995 %); type: functional
[36] = tested on: NCI-H460; experiment: Induction of apoptosis in human NCI-H460 cells assessed as necrotic cells at 2 uM after 48 hrs by Annexin V-FITC/propidium iodide staining based flow cytometric analysis (reference value: 0.498 %); type: functional
[37] = tested on: NCI-H460; experiment: Induction of apoptosis in human NCI-H460 cells assessed as viable cells at 5 uM after 48 hrs by Annexin V-FITC/propidium iodide staining based flow cytometric analysis (reference value: 91.528 %); type: functional; settings: read-out: Activity
[38] = tested on: NCI-H460; experiment: Induction of apoptosis in human NCI-H460 cells assessed as early apoptotic cells at 5 uM after 48 hrs by Annexin V-FITC/propidium iodide staining based flow cytometric analysis (reference value: 3.980 %); type: functional
[39] = tested on: NCI-H460; experiment: Induction of apoptosis in human NCI-H460 cells assessed as late apoptotic cells at 5 uM after 48 hrs by Annexin V-FITC/propidium iodide staining based flow cytometric analysis (reference value: 3.995 %); type: functional
[40] = tested on: NCI-H460; experiment: Induction of apoptosis in human NCI-H460 cells assessed as necrotic cells at 5 uM after 48 hrs by Annexin V-FITC/propidium iodide staining based flow cytometric analysis (reference value: 0.498 %); type: functional
[41] = tested on: NCI-H460; experiment: Induction of apoptosis in human NCI-H460 cells assessed as viable cells at 10 uM after 48 hrs by Annexin V-FITC/propidium iodide staining based flow cytometric analysis (reference value: 91.528 %); type: functional; settings: read-out: Activity
[42] = tested on: NCI-H460; experiment: Induction of apoptosis in human NCI-H460 cells assessed as early apoptotic cells at 10 uM after 48 hrs by Annexin V-FITC/propidium iodide staining based flow cytometric analysis (reference value: 3.980 %); type: functional
[43] = tested on: NCI-H460; experiment: Induction of apoptosis in human NCI-H460 cells assessed as late apoptotic cells at 10 uM after 48 hrs by Annexin V-FITC/propidium iodide staining based flow cytometric analysis (reference value: 3.995 %); type: functional
[44] = tested on: NCI-H460; experiment: Induction of apoptosis in human NCI-H460 cells assessed as necrotic cells at 10 uM after 48 hrs by Annexin V-FITC/propidium iodide staining based flow cytometric analysis (reference value: 0.498 %); type: functional

C=CCc1ccc(OCC)c(-c2cc(CC=C)cc(CN3CCC(NC(=O)[C@@H](N)Cc4ccccc4)CC3)c2O)c1
Activity [1]: Toxic | IC50 [2]: 0.82 µM | IC50 [3]: 1.45 µM | IC50 [4]: 1.11 µM | IC50 [5]: 2 µM | IC50 [6]: 1.94 µM | IC50 [7]: 2.34 µM | IC50 [8]: 2.12 µM | half-life [9]: 0.41 h | CLint [10]: 56.4 mL/min/g | IC50 [11]: 6.24 µM | inhibition in vivo at 50 mg/kg [12]: 57.4% | Activity [13]: Toxic | Activity [14]: Non-Toxic | Activity [15]: Non-Toxic | Activity [16]: Non-Toxic | Activity [17]: Non-Toxic

CCN(CC)CCCC(C)Nc1ccnc2cc(Cl)ccc12 (stereo not given) [CHLOROQUINE PHOSPHATE]
inhibition in vivo at 10 mg/kg [18]: 8.67%

C=CCc1ccc(O)c(-c2cc(CC=C)cc(CN3CCC(N)CC3)c2O)c1
IC50 [2]: 10.8 µM | IC50 [3]: 8.68 µM | IC50 [4]: 9.25 µM | IC50 [5]: 8.31 µM | IC50 [6]: 9.66 µM | IC50 [7]: 6.46 µM | IC50 [8]: 7.12 µM | half-life [9]: 2.1 h | CLint [10]: 11 mL/min/g | IC50 [11]: 0.83 µM | inhibition in vivo at 50 mg/kg [12]: 45.5% | inhibition in vivo at 60 mg/kg [19]: 45.2% | Activity [20]: 55% | Activity [21]: 22.68% | Activity [22]: 22.32% | Activity [23]: 58.76% | Activity [24]: 18.49% | Activity [25]: 22.74% | Activity [26]: 65.66% | Activity [27]: 15.16% | Activity [28]: 19.19% | viability at 1 µM [29]: 88.8% | Activity [30]: 6.017% | Activity [31]: 4.207% | Activity [32]: 0.931% | viability at 2 µM [33]: 87.6% | Activity [34]: 6.067% | Activity [35]: 5.012% | Activity [36]: 1.301% | viability at 5 µM [37]: 86.9% | Activity [38]: 6.82% | Activity [39]: 5.72% | Activity [40]: 0.51% | viability at 10 µM [41]: 73.4% | Activity [42]: 19.124% | Activity [43]: 7.246% | Activity [44]: 0.173%
